# Experimental data published in US4695576A, “L-N-n-propylpipecolic acid-2,6-xylidide” (priority 1985, dated 1987).
# “Also recorded” adds a separate entry of the source.
# Key:
# ulnar volar nerves = assay: Finger blockade, digital nerve blocks in man; assay type: in vivo; settings: for Time of onset, finger blockade: time from injection to complete analgesia
# Description: ^2 Digital nerve blocks in man. The test solutions were injected to
# block the ulnar volar nerves on the 2nd and 4th fingers of the same
# volunteers who had participated in the intracutaneous wheal tests
# described above. The tests were carried out in a double blind fashion in
# rotating system, so that each solution was used with equal frequency on
# each of the blocked fingers. A total of for injections 1.0 ml per
# injection, was done in each subject. One week later the procedure was
# repeated in the same subjects using the remaining test solutions. This
# method has been described by Dhuner et al. (1972) (for citation see Table
# 2 footnote 1). To measure the efficacy and duration of the blocks, the
# individual fingers were pricked rapidly 10 times with a needle algesimete
# and the number of painful pricks noted. Each finger was tested every five
# minutes until complete recovery. The time of complete anesthesia has been
# called "duration of anesthesia".
# *i.e. the time from injection to complete analgesia?
# **i.e. the number of successful anesthesias of total number of
# anesthesias performed (no anesthesia is possible if the ulnar volar nerve
# are not contacted by the anesthetic).
# [1] = tested on: peripheral nerve endings of the epidermis; assay: Intracutaneous wheals, infiltration anesthesia on forearms of man; assay type: in vivo; settings: 12 healthy volunteers, pinprick
# Excerpt: By use of intracutaneous wheals it is possible to measure the analgesic effect of an anesthetic on the peripheral nerve endings of the epidermis.
# This technique gives information about:
# (1) The duration of anesthesia.
# ^1 Infiltration anesthesia on forearms of man. The test solutions wer
# injected intracutaneously on the dorsum of the forearms of 12 healthy
# volunteers, 20-25 years old. Three wheals were made on each arm in a
# rotating system in a doublebind fashion. The local anesthetic effect was
# tested using a pinprick technique. The "duration of anesthesia" was
# defined as the time during which none out of six pinpricks into the wheal
# was felt. The method has been described by Dhuner et al. (1972). […]
# pigs = assay: Intracoronary administration in anesthetized pigs; assay type: in vivo, pig; settings: intracoronary
# Description: Eight pigs weighing around 50 kg were anesthetized with a continuous infusion of pentobarbital at 600 mg/h. Ventilation was established via a tracheotomy with 30% oxygen in nitrogen and normoventilation by a Siemens-Elema Servoventilator 900B. The following catheters were inserted after cutdown: Left ventricular, aortic, pulmonary arterial, great cardiac venous, left anterior descending coronary, arterial and central venous. […] The corresponding doses for bupivaciane were 0.25, 0.5, 1, 2 and 4 mg and for LEA 0.33, 0.66, 1.33, 2.66 and 5.33 mg. The injection rate was adjusted according to the preinjection coronary blood flow. Each series of drug injections was preceded by a placebo infusion. Total hemodynamic and electrocardiographic recovery was allowed between doses and there was a one hour resting period between drugs.
# Central pressures, left ventricular dP/dT and a complete chest lead ECG were recorded continuously. Cardiac output and great cardiac venous blood flow were determined before and directly after each dose of the local anesthetic agent.
# [2] = Anesthetic activity/potency comparison; assay type: in vivo; settings: comparison within homologous series
# skin = assay: Skin temperature measurements within intracutaneous wheals; assay type: in vivo, man; settings: for Temperature Difference (T1 wheal vs T2 controls) / T1 Intracutaneous Wheal temperature: HCl-salt, 10 minutes after injection; for T1 Intracutaneous Wheal temperature: mean of 6 wheals; for effect on temperature over the wheal: comparison with lidocaine + adrenaline
# Description: The mean value of 6 wheals for each substance forms the basis for the values. The control values, however, represent the mean value obtained from 4 different sites measured outside the wheals 90 degrees apart and 2 centimeters from the wheal's center.
# In the temperature measurements, an Oriel temperature apparatus* has been used. This is battery driven and is connected to a detector (diameter, 2.5 mm) and has an accuracy of ±0.1° C. The temperature of the skin is measured by pressing the detector against the skin with a pressure of 100 grams. It is retained against the skin until a constant temperature is obtained.
# In Table 4, T1 is the measurement obtained at the center of the wheal, and T2 is the average of four measurements taken 90 degrees apart outside of the wheal and within 2 centimeters of the wheal's center.
# [3] = Force of contraction of guinea pig papillary muscle; assay type: cell-based; settings: guinea pig, papillary muscle
# Description: (§1) In order to initiate an investigation without the necessity to involve voltage-clamp of the calcium current, the preparations were subject to long depolarizing induced automaticity. If the cells are depolarized from about -50 to about -30 mV the automaticity is dependent on a transmembrane calcium current.
# (§2) Guinea pig papillary tests were carried out according to the recommendation of the "Report of the Subcommittee on Cardiotoxicity of Local Anesthetics" (Leroy D. Vandam, M.D., chairman). […] Solutions maintained at 37° C.±0.5° continuously perfused the gap compartments. The rear chamber contained isotonic potassium chloride solution. The drugs were added to a Tris-Tyrode solution passing the tip of the muscle. […] It was adjusted to pH 7.4 with trismaleate and HCl before use and gassed with 100% oxygen. Isotonic sucrose solution isolated the rear from the tip to enable current- and voltage-clamping.
# (§3) The force of contraction was measured with a strain gauge transducer before and after the addition of the test compounds to the medium. The percent reduction in maximum force of contraction from the control was calculated.
# [4] = tested on: guinea pig papillary muscle; assay: as above; assay type: cell-based; settings: listed as LEA
# Description: as §1, §2, §3
# [5] = target: T1, guinea-pig papillary muscle sodium channels (Cavia porcellus, UniProt H0V4Z8); assay: Action on guinea-pig papillary muscle sodium channels (Vmax, recovery from block); assay type: cell-based
# T1 construct: Vmax of action potential as measure of sodium current
# Excerpt: Depression of cardiac conduction appears to be one of the primary mechanisms underlying local anesthetic cardiotoxicity. Depression of conduction by local anesthetics in both nerve and cardiac tissue results from a block of sodium channels. Furthermore, the degree of sodium channel block by local anesthetics is dependent upon the state of the sodium channel. […] Consequently, a block of sodium channels develops during the upstroke and plateau of the action potential and dissipates during the diastolic interval between beats. Since the effect of a local anesthetic is both state and time dependent, changes in both heart rate and diastolic membrane potential may alter drug action substantially.
# Guinea pig papillary tests were carried out according to the recommendation of the "Report of the Subcommittee on Cardiotoxicity of Local Anesthetics" (Leroy D. Vandam, M.D., chairman). Guinea pig papillary muscle excised from the right ventricle were mounted in a single sucrose gap apparatus (Arlock & Katzune, 1985). Solutions maintained at 37° C.±0.5° continuously perfused the gap compartments. The rear chamber contained isotonic potassium chloride solution. The drugs were added to a Tris-Tyrode solution passing the tip of the muscle. The Tris-Tyrode solution contained (mM): NaCl, 145; KCl, 4; CaCl2, 1.2; MgCl2, 1.05; glucose, 5.5 Tris maleate, 5. It was adjusted to pH 7.4 with trismaleate and HCl before use and gassed with 100% oxygen. Isotonic sucrose solution isolated the rear from the tip to enable current- and voltage-clamping.
# The muscles were depolarized with long current pulses (1500 msec). These current steps can induce automaticity or DIA (depolarization induced automaticity). The steps were adjusted so the preparations were depolarized to from -50 to -30 mV since that is in that range that calcium current conductance is initiated.
# The results represent the mean from representative experiments. In the absence of drug, Vmax (maximum upstroke velocity of the action potential) recovers from inactivation with an exponential time constant of less that 30 msec at -90 mV (Gettes and Reuter, 1974). […] The time constant of this recovery process is different for channels blocked by different drugs.
# tissue [6] = settings: in vivo; cited from earlier work
# tissue [7] = assay: Tissue toxicity limits (Trypan blue test, threshold of tissue irritancy); assay type: in vivo; settings: in vivo
# Excerpt: The toxicity of the homologous series of N-alkylpipecolic acid-2,6-xylidides increases step wise and quickly with the lengthening of the alkyl chain. This is manifest from Table 1 set forth below, which compares racemic mixtures of alkyl homologues having from 1 to 5 carbon atoms.
# *Trypan blue test; Hoppe et al. (1950), 39, 147-151 "Use of Trypan Blue
# and Rabbit Eye Tests For Irritation", J. Amer. Pharm. Assoc. (Scient.
# Ed.), the values are approximate threshold values of tissue irritancy.
# in vivo = settings: mouse, iv, read-out: LD50 I.v. (intravenous)
smiles,measurement,setting,value
CCN1CCCC[C@@H]1C(=O)Nc1c(C)cccc1C [2 D],"Analgesia-duration, finger blockade",ulnar volar nerves; Concentration 0.5%,112 ± 21 min
same,Frequency (successful anesthesias of total performed),ulnar volar nerves; Concentration 0.5%,10/13
same,"Time of onset, finger blockade",ulnar volar nerves; Concentration 0.5%,9 ± 3 min
same,"Analgesia-duration, intracutaneous wheals",[1]; Conc. 0.25%,58 ± 11 min
CCCCN1CCCC[C@H]1C(=O)Nc1c(C)cccc1C [4 L],"Analgesia-duration, finger blockade",ulnar volar nerves; Concentration 0.25%,259 ± 37 min
same,Frequency (successful anesthesias of total performed),ulnar volar nerves; Concentration 0.25%,13/20
same,"Time of onset, finger blockade",ulnar volar nerves; Concentration 0.25%,13 ± 3 min
same,"Analgesia-duration, intracutaneous wheals",[1]; Conc. 0.25%,76 ± 10 min
"CCCN1CCCC[C@H]1C(=O)Nc1c(C)cccc1C [3 L, L-N-n-propylpipecolic acid-2,6-xylidide]",sudden cardiac collapse,pigs,not
same,anesthetic effect,[2],optimal increase of anesthetic effects; also recorded: markedly superior
same,Temperature Difference (T1 wheal vs T2 controls),skin; Conc. 0.25%,-1.2 °C
same,T1 Intracutaneous Wheal temperature,skin; Conc. 0.25%,30.0 °C
same,effect on temperature over the wheal,skin,lowers the temperature over its wheal to approximately the same extent as the combination of lidocaine with adrenaline
same,"Analgesia-duration, finger blockade",ulnar volar nerves; Concentration 0.25%,739 ± 46 min
same,Frequency (successful anesthesias of total performed),ulnar volar nerves; Concentration 0.25%,6/7
same,"Time of onset, finger blockade",ulnar volar nerves; Concentration 0.25%,12 ± 2 min
same,inhibition at 5 µM,[3],13.8%
same,inhibition at 10 µM,[3],9.6%
same,inhibition at 100 µM,[3],8%
same,effect on force of contraction/contractility,[4],only moderately diminished; also recorded: very mild depressant actions
same,Vmax depression,[5]; 10^-4 M for a short period,very depressed
same,attenuated excitability,[5]; 10^-4 M for a short period,no attenuated excitability could be detected
same,time to full recovery of Vmax,"[5]; 10^-4 M, stimulus rate 1 Hz",20 min
same,elimination from the tissue (washout),[5]; 25 min. washout after 10^-4 M,readily eliminated from the tissue
same,recovery to 90% of drug-blocked channels,[5]; -90 mV,2048 ms
same,recovery from block,"[5]; especially at hyperpolarized levels (-100--120 mV), listed as LEA",recovers faster; also recorded: considerably faster
same,"Analgesia-duration, intracutaneous wheals",[1]; Conc. 0.25%,220 ± 23 min
Cc1cccc(C)c1NC(=O)[C@@H]1CCCCN1C [1 L],"Analgesia-duration, finger blockade",ulnar volar nerves; Concentration 1.0%,124 ± 21 min
same,Frequency (successful anesthesias of total performed),ulnar volar nerves; Concentration 1.0%,11/12
same,"Time of onset, finger blockade",ulnar volar nerves; Concentration 1.0%,7 ± 3 min
same,"Analgesia-duration, intracutaneous wheals",[1]; Conc. 0.5%,68 ± 11 min
Cc1cccc(C)c1NC(=O)[C@H]1CCCCN1C [1 D],"Analgesia-duration, finger blockade",ulnar volar nerves; Concentration 1.0%,71 ± 13 min
same,Frequency (successful anesthesias of total performed),ulnar volar nerves; Concentration 1.0%,9/13
same,"Time of onset, finger blockade",ulnar volar nerves; Concentration 1.0%,7 ± 2 min
same,"Analgesia-duration, intracutaneous wheals",[1]; Conc. 0.5%,53 ± 8 min
CCCCCN1CCCC[C@@H]1C(=O)Nc1c(C)cccc1C [5 D],tissue irritation,tissue [6],irritating
CCN1CCCC[C@H]1C(=O)Nc1c(C)cccc1C [2 L],"Analgesia-duration, finger blockade",ulnar volar nerves; Concentration 0.5%,141 ± 18 min
same,Frequency (successful anesthesias of total performed),ulnar volar nerves; Concentration 0.5%,11/13
same,"Time of onset, finger blockade",ulnar volar nerves; Concentration 0.5%,9 ± 2 min
"CCCN1CCCCC1C(=O)Nc1c(C)cccc1C (stereo not drawn) [3 R, N--n-propylpipecolic acid 2,6-xylidide]",anesthetic effect,[2],so far below that of the racemic Bupivacaine
same,Temperature Difference (T1 wheal vs T2 controls),skin; Conc. 0.25%,-0.1 °C
same,T1 Intracutaneous Wheal temperature,skin; Conc. 0.25%,33.1 °C
same,effect on temperature over the wheal,skin,practically no change in temperature
same,"Analgesia-duration, finger blockade",ulnar volar nerves; Concentration 0.25%,263 ± 31 min
same,Frequency (successful anesthesias of total performed),ulnar volar nerves; Concentration 0.25%,9/10
same,"Time of onset, finger blockade",ulnar volar nerves; Concentration 0.25%,10 ± 1 min
same,Tissue toxicity limits in %,tissue [7],1.5%
same,"Analgesia-duration, intracutaneous wheals",[1]; Conc. 0.25%,84 ± 15 min
CCCCN1CCCC[C@@H]1C(=O)Nc1c(C)cccc1C [4 D],"Analgesia-duration, finger blockade",ulnar volar nerves; Concentration 0.25%,243 ± 38 min
same,Frequency (successful anesthesias of total performed),ulnar volar nerves; Concentration 0.25%,14/20
same,"Time of onset, finger blockade",ulnar volar nerves; Concentration 0.25%,15 ± 4 min
same,"Analgesia-duration, intracutaneous wheals",[1]; Conc. 0.25%,75 ± 11 min
CCCN1CCCC[C@@H]1C(=O)Nc1c(C)cccc1C [3 D],"Analgesia-duration, finger blockade",ulnar volar nerves; Concentration 0.25%,175 ± 21 min
same,Frequency (successful anesthesias of total performed),ulnar volar nerves; Concentration 0.25%,7/8
same,"Time of onset, finger blockade",ulnar volar nerves; Concentration 0.25%,14 ± 3 min
same,"Analgesia-duration, intracutaneous wheals",[1]; Conc. 0.25%,81 ± 14 min
CCCCCN1CCCC[C@H]1C(=O)Nc1c(C)cccc1C [5 L],tissue irritation,tissue [6],irritating
"CCN1CCCCC1C(=O)Nc1c(C)cccc1C (stereo not drawn) [2 R, N--ethylpipecolic acid-2,6-xylidide]",LD50,in vivo,21 mg/kg
same,"Analgesia-duration, finger blockade",ulnar volar nerves; Concentration 0.5%,123 ± 19 min
same,Frequency (successful anesthesias of total performed),ulnar volar nerves; Concentration 0.5%,12/12
same,"Time of onset, finger blockade",ulnar volar nerves; Concentration 0.5%,10 ± 1 min
same,Tissue toxicity limits in %,tissue [7],3.0%
"Cc1cccc(C)c1NC(=O)C1CCCCN1C (racemic) [1 R, N--methylpipecolic acid-2,6-xylidide]","Analgesia-duration, finger blockade",ulnar volar nerves; Concentration 1.0%,102 ± 22 min
same,Frequency (successful anesthesias of total performed),ulnar volar nerves; Concentration 1.0%,13/13
same,"Time of onset, finger blockade",ulnar volar nerves; Concentration 1.0%,7 ± 2 min
same,Tissue toxicity limits in %,tissue [7],3.5%
same,"Analgesia-duration, intracutaneous wheals",[1]; Conc. 0.5%,65 ± 9 min
"Cc1cccc(C)c1NC(=O)C1CCCCN1CCO (stereo not drawn) [R--N--2-hydroxyethyl-pipecolic acid-2,6-xylidide]",Temperature Difference (T1 wheal vs T2 controls),skin; Conc. 1.0%,+0.5 °C
same,T1 Intracutaneous Wheal temperature,skin; Conc. 1.0%,31.2 °C
